Reference: US11286252B2, “Alkene spirocyclic compounds as farnesoid X receptor modulators” (BRISTOL-MYERS SQUIBB COMPANY, priority 2017, dated 2022)

Target: T1, human FXR (Homo sapiens, UniProt Q96RI1)
T1 construct: expressed in transfected cells; host or cells: HEK293 cells stably carrying a 5xGal4-response-element firefly luciferase reporter, transiently transfected with pcDNA3.1-Gal4-FXR
T1 sequence (Q96RI1 262-486 limits assumed): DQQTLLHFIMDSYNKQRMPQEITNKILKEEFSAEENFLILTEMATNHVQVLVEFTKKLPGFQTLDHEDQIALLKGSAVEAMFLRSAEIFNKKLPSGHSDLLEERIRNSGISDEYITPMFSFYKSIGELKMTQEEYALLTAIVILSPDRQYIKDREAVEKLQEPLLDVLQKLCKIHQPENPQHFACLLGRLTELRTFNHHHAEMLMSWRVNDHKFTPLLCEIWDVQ
Assay: transient human FXR/Gal4-luciferase reporter assay
Assay type: cell-based
Conditions: Gal4-hFXR fusion construct, luciferase reporter HEK293 cells; response relative to 8 μM GW-4064; unit inferred
Protocol: The exemplified compounds of the present invention were tested in the transient human FXR/Gal4-luciferase reporter assay, and assay results were reported in Table 1 and Examples 1 to 3 together with other analytical data.
A Gal4-hFXR fusion construct reporter system was used as the primary assay to characterize compound activity. A construct including 5 copies of the Gal4 promoter response element upstream of a firefly luciferase reporter cDNA was stably expressed in HEK293 cells. This reporter cell line was maintained in Dulbecco's Modified Eagle's medium (DMEM; Gibco) supplemented with 1% penicillin-streptomycin (P/S) solution, 500 μg/mL Zeocin and 10% charcoal/dextran-treated fetal bovine serum (cs-FBS) at 37° C. in a humidified 5% CO2 atmosphere. Another plasmid was constructed in which the human cytomegalovirus promoter in the pcDNA3.1 vector directs the expression of the cDNA encoding a fusion protein comprised of the DNA binding domain from the Gal4 transcription factor fused to the ligand binding domain from human FXR.
The day prior to transfection, the reporter cells in culture are detached from the plate with trypsin and plated into a T75 flask at a sufficient density to achieve approximately 90% confluence the next morning. The transfection reagents are prepared by separately diluting 25 μg of the pcDNA3.1-Gal4-FXR plasmid into 1.87 mL of Opti-MEM (Thermo-Fisher), and 40 μL of Lipofectamine 2000 (Thermo-Fisher) into 1.87 mL of Opti-MEM, and then adding the diluted DNA solution into the diluted Lipofectamine 2000 solution and incubating at room temperature for 15-20 minutes. The mixture is further diluted with 10 mL of a solution comprised of DMEM, 10% cs-FBS, and 1% P/S immediately prior to transferring to the cells. The maintenance culture media is aspirated from the cells and the final transfection mixture is added before the cells are incubated overnight at 37° C. in a humidified 5% CO2 atmosphere. This protocol can be scaled up, and the transiently transfected cells can be cryopreserved in an assay-ready format.
For compound testing, 100 nL of the compounds (serial dilutions in DMSO) are dispensed with an Echo acoustic dispenser (Labcyte) into the wells of a Corning/Costar clear bottom 384-well white plate. The transfected cells are harvested, counted, and diluted such that 10-25,000 cells in 25 μL are plated into each well of the 384-well compound assay plate. The compound-treated cells are incubated overnight at 37° C. in a humidified 5% CO2 atmosphere. The next morning 25 μL of Steady-Glo (Promega) are added to each well of the plate, the mixture is incubated for 15 min. with shaking, and luminescence is measured on an Envision (Perkin Elmer) plate reader. Background counts from cells treated with DMSO alone are subtracted from all raw counts, and the corrected values are converted to a percentage of the control response attained with 8 μM GW-4064.

SMILES	EC50 [nM]
O=C(O)c1cc(O[C@@H]2CCOC2)c2cc(N3CC4(CC(/C=C/c5c(-c6ccccc6C(F)(F)F)noc5C5CC5)C4)C3)ccc2n1 [Example 20]	33
O=C(O)c1cc(O[C@H]2CCOC2)c2cc(N3CC4(CC(/C=C/c5c(-c6ccccc6C(F)(F)F)noc5C5CC5)C4)C3)ccc2n1 [Example 21]	18
COc1cc(C(=O)O)nc2ccc(N3CC4(CC(/C=C/c5c(-c6cccnc6C(F)(F)F)noc5C5CC5)C4)C3)cc12 [Example 22]	111
O=C(O)c1cc(OC2COC2)c2cc(N3CC4(CC(/C=C/c5c(-c6cccnc6C(F)(F)F)noc5C5CC5)C4)C3)ccc2n1 [Example 23]	165
O=C(O)c1cc(OC2COC2)c2cc(N3CC4(CC(/C=C/c5c(-c6c(Cl)cncc6Cl)noc5C5CC5)C4)C3)ccc2n1 [Example 24]	114
CCOc1cc(C(=O)O)nc2ccc(N3CC4(CC(/C=C/c5c(-c6cccnc6C(F)(F)F)noc5C5CC5)C4)C3)cc12 [Example 25]	153
O=C(O)c1cc(O[C@@H]2CCOC2)c2cc(N3CC4(CC(/C=C/c5c(-c6cccnc6C(F)(F)F)noc5C5CC5)C4)C3)ccc2n1 [Example 26]	231
COc1cc(C(=O)O)nc2ccc(N3CC4(CC(/C=C/c5c(-c6c(Cl)cncc6Cl)noc5C5CC5)C4)C3)nc12 [Example 28]	1630
Cn1nc(C(=O)O)cc1OCC1CC2(CC(/C=C/c3c(-c4c(Cl)cncc4Cl)noc3C3CC3)C2)C1 (stereo not shown) [Example 45]	24
O=C(O)c1cc(C(F)(F)F)c2cc(OCC3CC4(CC(/C=C/c5c(-c6c(Cl)cncc6Cl)noc5C5CC5)C4)C3)ccc2n1 (stereo not shown) [Example 46]	22
O=C(O)c1cccc(OCC2CC3(CC(/C=C/c4c(-c5c(Cl)cncc5Cl)noc4C4CC4)C3)C2)c1 (stereo not shown) [Example 47]	40
NC(=O)c1cccc(OCC2CC3(CC(/C=C/c4c(-c5ccccc5C(F)(F)F)noc4C4CC4)C3)C2)c1 (stereo not shown) [Example 48]	214
NC(=O)Cc1ccc(OCC2CC3(CC(/C=C/c4c(-c5ccccc5C(F)(F)F)noc4C4CC4)C3)C2)cc1 (stereo not shown) [Example 49]	178

Second part, the compound after the results:

EC50 [nM]	SMILES
142	Cc1cc(OCC2CC3(CC(/C=C/c4c(-c5ccccc5C(F)(F)F)noc4C4CC4)C3)C2)cnc1C(=O)O (stereo not shown) [Example 50]
99	Cn1nc(C(=O)O)cc1OCC1CC2(CC(/C=C/c3c(-c4ccccc4C(F)(F)F)noc3C3CC3)C2)C1 (stereo not shown) [Example 51]
82	O=C(O)c1cc(C(F)(F)F)c2cc(OCC3CC4(CC(/C=C/c5c(-c6ccccc6C(F)(F)F)noc5C5CC5)C4)C3)ccc2n1 (stereo not shown) [Example 52]
187	O=C(O)c1ccc2cc(OCC3CC4(CC(/C=C/c5c(-c6ccccc6C(F)(F)F)noc5C5CC5)C4)C3)ccc2n1 (stereo not shown) [Example 53]
122	O=C(O)c1cc2ccc(OCC3CC4(CC(/C=C/c5c(-c6ccccc6C(F)(F)F)noc5C5CC5)C4)C3)cc2nn1 (stereo not shown) [Example 54]
50	O=C(O)c1ncc(OCC2CC3(CC(/C=C/c4c(-c5c(Cl)cncc5Cl)noc4C4CC4)C3)C2)cc1C(F)(F)F (stereo not shown) [Example 55]
95	O=C(O)c1ncc(OCC2CC3(CC(/C=C/c4c(-c5ccccc5C(F)(F)F)noc4C4CC4)C3)C2)cc1C(F)(F)F (stereo not shown) [Example 56]
75	O=C(O)c1cc2ccc(OCC3CC4(CC(/C=C/c5c(-c6c(Cl)cncc6Cl)noc5C5CC5)C4)C3)cc2nn1 (stereo not shown) [Example 57]
22	O=C(O)c1ncc(OCC2CC3(CC(/C=C/c4c(-c5c(Cl)cncc5Cl)noc4C4CC4)C3)C2)cc1OC1CCC1 (stereo not shown) [Example 58]
85	Cc1c(OCC2CC3(CC(/C=C/c4c(-c5c(Cl)cncc5Cl)noc4C4CC4)C3)C2)nn(C(C)C)c1C(=O)O (stereo not shown) [Example 59]
34	O=C(O)c1cc(OCC2CC3(CC(/C=C/c4c(-c5c(Cl)cncc5Cl)noc4C4CC4)C3)C2)n(C2CC2)n1 (stereo not shown) [Example 60]
16	O=C(O)c1ncc(OCC2CC3(CC(/C=C/c4c(-c5ccccc5C(F)(F)F)noc4C4CC4)C3)C2)cc1OC1CC1 (stereo not shown) [Example 61]
36	O=C(O)c1ncc(OCC2CC3(CC(/C=C/c4c(-c5ccccc5C(F)(F)F)noc4C4CC4)C3)C2)cc1OC1CCC1 (stereo not shown) [Example 62]
393	NC(=O)c1ncc(OCC2CC3(CC(/C=C/c4c(-c5ccccc5C(F)(F)F)noc4C4CC4)C3)C2)cc1OC1CCC1 (stereo not shown) [Example 63]
667	NC(=O)c1ncc(OCC2CC3(CC(/C=C/c4c(-c5ccccc5C(F)(F)F)noc4C4CC4)C3)C2)cc1OC1CC1 (stereo not shown) [Example 64]
153	NC(=O)c1ncc(OCC2CC3(CC(/C=C/c4c(-c5c(Cl)cncc5Cl)noc4C4CC4)C3)C2)cc1OC1CCC1 (stereo not shown) [Example 65]
188	CN1CCN(c2cc(C(=O)O)nc3ccc(OCC4CC5(CC(/C=C/c6c(-c7c(Cl)cncc7Cl)noc6C6CC6)C5)C4)cc23)CC1 (stereo not shown) [Example 66]
302	CN1CCN(c2cc(C(=O)O)nc3ccc(OCC4CC5(CC(/C=C/c6c(-c7ccccc7C(F)(F)F)noc6C6CC6)C5)C4)cc23)CC1 (stereo not shown) [Example 67]
